Data on 18 compounds can be found in patent US5631401A, “Inhibitors of protein farnesyltransferase and squalene synthase” (Abbott Laboratories, priority 1995, dated 1997).

For assay [1], the target named is T1, Rat liver microsomal squalene synthase (Rattus norvegicus, UniProt Q02769).
T1 construct: Rat liver microsomes, the source of enzyme, were prepared; from tissue; host or cells: rat liver microsomes
T1 sequence (Q02769 1-416): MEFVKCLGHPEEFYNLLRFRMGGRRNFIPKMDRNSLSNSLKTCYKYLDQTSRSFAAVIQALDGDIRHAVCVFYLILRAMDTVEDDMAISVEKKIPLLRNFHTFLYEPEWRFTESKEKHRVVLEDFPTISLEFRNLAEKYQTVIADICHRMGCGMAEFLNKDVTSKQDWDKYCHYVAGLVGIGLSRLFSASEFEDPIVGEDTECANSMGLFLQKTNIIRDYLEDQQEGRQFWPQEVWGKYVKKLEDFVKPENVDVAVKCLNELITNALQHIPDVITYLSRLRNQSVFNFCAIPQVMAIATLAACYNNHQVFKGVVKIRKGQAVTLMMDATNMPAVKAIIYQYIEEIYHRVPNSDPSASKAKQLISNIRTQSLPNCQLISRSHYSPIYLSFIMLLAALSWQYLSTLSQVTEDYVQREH
The assay is described as follows: In vitro inhibition of squalene synthase (rat liver microsomes, 3H-farnesyl diphosphate). In kind it is biochemical. The conditions noted are these: for inhibition at 10 µM: 10 μM (footnote *), read-out: % Inhibition at 10 μM (squalene synthase, values marked *); for inhibition at 1 µM: compared to controls with no test compound. As to the method:
In vitro inhibition of squalene synthase may be measured by the following procedure.
Rat liver microsomal squalene synthase activity was measured using radioactive farnesyl diphosphate as a substrate and quantitating squalene synthesis by counting the radioactive squalene formed.
Rat liver microsomes, the source of enzyme, were prepared according to the method of Gillies, P. J., et al., Exp. Molec. Pathol. 44: 329-339 (1986), a modification of the procedure of Erickson, S. K., and Cooper, A. D., Metabolism, 29: 991-996 (1980). Approximately 30 μg of microsomal protein was incubated for 10 minutes at 37° C. with 11 μM of ^3 H-farnesyl diphosphate, 49 mCi/mmol, and test compound in the presence of squalene (2 μL), Mg^++, KF, reduced B-nicotinamide adenine dinucleotide phosphate, dithiothreitol, and K2 PO4, pH 7.35, in a total volume of 200 μL. Oxygen was excluded from the closed incubation tube by degassing with nitrogen. The reaction was terminated by the addition of ethanolic KOH and after degassing with N2, the microsomal membranes were solubilized by heating at 60° C. for 30 minutes. The squalene was extracted into hexane, and the squalene was separated from all other radioactive molecules by passage over an activated alumina column. The solution was collected in scintillation vials, evaporated to dryness, liquid scintillation fluid was added, and the radioactivity was determined in a liquid scintillation counter. […]
For orientation: Liver microsomes are a subcellular fraction often used to study metabolism.

The target in assay [2] is T2, Rat brain protein farnesyltransferase (Rattus norvegicus, UniProt Q02293+Q04631).
T2 construct: The enzyme was purified according to Reiss, Y., et al., Cell, 62: 81-88 (1990), utilizing steps one through three; from tissue; host or cells: rat brain
The assay is described as follows: In vitro inhibition of protein farnesyltransferase (biotin-lamin substrate, scintillation proximity assay). The assay is classed as biochemical. The conditions noted are these: for inhibition at 10 µM: compared to uninhibited control; for inhibition at 1 µM: 1 μM (footnote *), read-out: % Inhibition at 1 μM (protein farnesyltransferase, values marked *). As to the method:
In vitro inhibition of protein farnesyltransferase may be measured by the following procedure. (Procedures for determination of the inhibition of farnesylation of the oncogene protein Ras are described by Goldstein, et al., J. Biol. Chem., 266: 15575-15578 (1991) and by Singh in U.S. Pat. No. 5,245,061 both of which are incorporated herein by reference.)
Rat brain protein farnesyltransferase activity was measured using the biotin-lamin substrate (which is known to undergo farnesylation in a manner analogous to Ras protein) and radioactive farnesyl diphosphate provided by Amersham Life Science in their commercial scintillation proximity assay kit for the determination of farnesyltransferase. The enzyme was purified according to Reiss, Y., et al., Cell, 62: 81-88 (1990), utilizing steps one through three. The specific activity of the enzyme was approximately 10 nmol substrate farnesylated/mg enzyme/hour. […]

Broadly, the inhibition is the percentage by which the read-out fell short of the control. As to `CCCN(Cc1ccc(Oc2ccccc2)cc1)C(=O)[C@H]1[C@H](C(=O)O)[C@H](C(=O)N(CCC)Cc2ccc(Oc3ccccc3)cc2)[C@H]1C(=O)O` [Example 18, (1α,2β,3β,4α)-1,3-Di(N-propyl-N-(4-phenoxybenzyl)aminocarbonyl)cyclobutane-2,4-dicarboxylic acid], the inhibition at 10 µM in assay [1] came to 89%; in assay [2], 55%.

Turning to `CSCCN(Cc1ccc(Oc2ccccc2)cc1)C(=O)C1C(C(=O)O)C(C(=O)N(CCSC)Cc2ccc(Oc3ccccc3)cc2)C1C(=O)O` (stereo not drawn) [Example 69, (1α,2β,3β,4α)-1,3-Di[N-(2-methylthioethyl)-N-(4-phenoxybenzyl)aminocarbonyl]cyclobutane-2,4-dicarboxylic acid], the inhibition at 1 µM amounted to 23% in assay [1] and 31% in assay [2].

Regarding `O=C(O)[C@H]1[C@H](C(=O)N(Cc2ccc(Oc3ccccc3)cc2)CC2CCCC2)[C@H](C(=O)O)[C@H]1C(=O)N(Cc1ccc(Oc2ccccc2)cc1)CC1CCCC1` [Example 101, (1α,2β,3β,4α)-1,3-Di[N-cyclopentylmethyl-N-(4-phenoxybenzyl)aminocarbonyl]cyclobutane-2,4-dicarboxylic acid], the inhibition at 1 µM was 34% in assay [1] and 26% in assay [2].

`CN(Cc1ccc(Oc2ccc(F)cc2)cc1)C(=O)[C@H]1[C@H](C(=O)O)[C@H](C(=O)N(C)Cc2ccc(Oc3ccc(F)cc3)cc2)[C@H]1C(=O)O` [Example 21, (1α,2β,3β,4α)-1,3-Di(N-methyl-N-(4-(4-fluorophenoxy)benzyl)aminocarbonyl)cyclobutane-2,4-dicarboxylic acid]: the inhibition at 10 µM in assay [1] worked out at 33%; in assay [2] it was 27%.

For `C=CCN(Cc1ccc(Oc2ccccc2)cc1)C(=O)[C@H]1[C@H](C(=O)O)[C@H](C(=O)N(CC=C)Cc2ccc(Oc3ccccc3)cc2)[C@H]1C(=O)O` [Example 30, (1α,2β,3β,4α)-1,3-Di(N-allyl-N-(4-phenoxybenzyl)aminocarbonyl)cyclobutane-2,4-dicarboxylic acid], the inhibition at 10 µM came to 63% in assay [1] and 37% in assay [2].

Turning to `CN(Cc1ccc(OCc2ccccc2)cc1)C(=O)[C@H]1[C@H](C(=O)O)[C@H](C(=O)N(C)Cc2ccc(OCc3ccccc3)cc2)[C@H]1C(=O)O` [Example 15, (1α,2β,3β,4α)-1,3-Di[N-methyl-N-(4-benzyloxybenzyl)aminocarbonyl]cyclobutane-2,4-dicarboxylic acid], the inhibition at 10 µM in assay [1] came to 26%; in assay [2] it was 45%.

On to `COC(=O)CN(Cc1ccc(Oc2ccccc2)cc1)C(=O)[C@H]1[C@H](C(=O)O)[C@H](C(=O)N(CC(=O)OC)Cc2ccc(Oc3ccccc3)cc2)[C@H]1C(=O)O` [Example 42, (1α,2β,3β,4α)-1,3-Di[N-methoxycarbonylmethyl-N-(4-phenoxybenzyl)aminocarbonyl]cyclobutane-2,4-dicarboxylic acid], for which the inhibition at 1 µM in assay [1] came out at 36%. This compound also registered an inhibition at 10 µM in assay [2] of 67%.

For `CN(Cc1cccc(Oc2ccccc2)c1)C(=O)[C@H]1[C@H](C(=O)O)[C@H](C(=O)N(C)Cc2cccc(Oc3ccccc3)c2)[C@H]1C(=O)O` [Example 19, (1α,2β,3β,4α)-1,3-Di(N-methyl-N-(3-phenoxybenzyl)aminocarbonyl)cyclobutane-2,4-dicarboxylic acid], the inhibition at 10 µM in assay [1] is 52%; in assay [2] it was 80%.

In the case of `CCCCCN(Cc1ccc(Oc2ccccc2)cc1)C(=O)[C@H]1[C@H](C(=O)O)[C@H](C(=O)N(CCCCC)Cc2ccc(Oc3ccccc3)cc2)[C@H]1C(=O)O` [Example 29, (1α,2β,3β,4α)-1,3-Di(N-pentyl-N-(4-phenoxybenzyl)aminocarbonyl)cyclobutane-2,4-dicarboxylic acid], the figures for the inhibition at 10 µM in assay [1] and in assay [2] were 50% and 38%, respectively.

Regarding `C[C@@H](c1ccccc1)N(Cc1ccc(Oc2ccccc2)cc1)C(=O)[C@H]1[C@H](C(=O)O)[C@H](C(=O)N(Cc2ccc(Oc3ccccc3)cc2)[C@@H](C)c2ccccc2)[C@H]1C(=O)O` [Example 87, (1α,2β,3β,4α)-1,3-Di[N-(S)-α-Methylbenzyl-N-(4-phenoxybenzyl)aminocarbonyl]cyclobutane-2,4-dicarboxylic acid], the inhibition at 1 µM in assay [1] was found to be 76%. The same compound gave an inhibition at 10 µM in assay [2] of 86%.

With `CCCN(CCc1ccc(Oc2ccccc2)cc1)C(=O)C1C(C(=O)O)C(C(=O)N(CCC)CCc2ccc(Oc3ccccc3)cc2)C1C(=O)O` (stereo not drawn) [Example 67, (1α,2β,3β,4α)-1,3-Di[N-propyl-N-(2-(4-phenoxyphenyl)ethyl)aminocarbonyl]cyclobutane-2,4-dicarboxylic acid], the inhibition at 1 µM in assay [1] was 47%; in assay [2], 61%.

In turn, `O=C(O)[C@H]1[C@H](C(=O)N(Cc2ccc(Oc3ccccc3)cc2)CC2CC2)[C@H](C(=O)O)[C@H]1C(=O)N(Cc1ccc(Oc2ccccc2)cc1)CC1CC1` [Example 93, (1α,2β,3β,4α)-1,3-Di[N-Cyclopropylmethyl-N-(4-phenoxybenzyl)aminocarbonyl]cyclobutane-2,4-dicarboxylic acid] displayed an inhibition at 1 µM in assay [1] of 52%. For the same compound, the inhibition at 10 µM in assay [2] came out at 74%.

Regarding `O=C(O)[C@H]1[C@H](C(=O)N(CCc2ccccc2)Cc2ccc(Oc3ccccc3)cc2)[C@H](C(=O)O)[C@H]1C(=O)N(CCc1ccccc1)Cc1ccc(Oc2ccccc2)cc1` [Example 78, (1α,2β,3β,4α)-1,3-Di [N-(4-phenoxybenzyl)-N-phenethylaminocarbonyl]cyclobutane-2,4-dicarboxylicacid], the inhibition at 1 µM in assay [1] is 32%. Testing at 10 µM in assay [2] gave an inhibition of 83%.

For `O=C(O)[C@H]1[C@H](C(=O)N(Cc2ccccc2)Cc2ccc(Cl)cc2)[C@H](C(=O)O)[C@H]1C(=O)N(Cc1ccccc1)Cc1ccc(Cl)cc1` [Example 34, (1α,2β,3β,4α)-1,3-Di[N-benzyl-N-(4-chlorobenzyl)aminocarbonyl]cyclobutane-2,4-dicarboxylic acid], the values for the inhibition at 10 µM in assay [1] and in assay [2] were 29% and 40%, respectively.

Regarding `CCCN(Cc1ccc(Oc2ccccc2)c(C)c1)C(=O)C1C(C(=O)O)C(C(=O)N(CCC)Cc2ccc(Oc3ccccc3)c(C)c2)C1C(=O)O` (stereo not drawn) [Example 59, (1α,2β,3β,4α)-1,3-Di{N-propyl-N-[(3-methyl-4-phenoxy)benzyl]aminocarbonyl}cyclobutane-2,4-dicarboxylic acid], at 1 µM the inhibition in assay [1] was 46%. In assay [2], at 10 µM the inhibition was 54%.

Consider `CCCN(Cc1ccc(Oc2ccc3ccccc3c2)cc1)C(=O)C1C(C(=O)O)C(C(=O)N(CCC)Cc2ccc(Oc3ccc4ccccc4c3)cc2)C1C(=O)O` (stereo not drawn) [Example 58, (1α,2β,3β,4α)-1,3-Di{N-propyl-N-[4-(naphth-2-yloxy)benzyl]aminocarbonyl}cyclobutane-2,4-dicarboxylic acid], for which the inhibition at 1 µM was 50% in assay [1] and 31% in assay [2].

For `CCCN(Cc1ccc(Oc2ccco2)cc1)C(=O)C1C(C(=O)O)C(C(=O)N(CCC)Cc2ccc(Oc3ccco3)cc2)C1C(=O)O` (stereo not drawn) [Example 54], at 1 µM the inhibition in assay [1] was 23%. This compound also had an inhibition at 10 µM in assay [2] of 59%.

In assay [1], `CC(C)CN(Cc1ccc(Oc2ccccc2)cc1)C(=O)[C@H]1[C@H](C(=O)O)[C@H](C(=O)N(Cc2ccc(Oc3ccccc3)cc2)CC(C)C)[C@H]1C(=O)O` [Example 25, (1α,2β,3β,4α)-1,3-Di(N-isobutyl-N-(4-phenoxybenzyl)aminocarbonyl)cyclobutane-2,4-dicarboxylic acid] yielded an inhibition at 1 µM of 24%. Besides, in assay [2], the inhibition at 10 µM worked out at 59%.
